Measurements reported in ChEMBL document CHEMBL4433223, “Treatment of Prostate Cancers and Kennedy's Disease by PROTAC-Androgen Receptor Degradation” (ACS Med Chem Lett, 2019).

What was measured:
[1] = biological target: T1, von Hippel-Lindau disease tumor suppressor/Androgen receptor (Homo sapiens, UniProt P10275+P40337); test: Protac activity against VHL/AR in human LNCAP cells assessed as induction of AR degradation incubated for 24 hrs by ELISA relative to untreated control; type: cell-based
Target sequence in this assay (P10275 whole entry, looked up): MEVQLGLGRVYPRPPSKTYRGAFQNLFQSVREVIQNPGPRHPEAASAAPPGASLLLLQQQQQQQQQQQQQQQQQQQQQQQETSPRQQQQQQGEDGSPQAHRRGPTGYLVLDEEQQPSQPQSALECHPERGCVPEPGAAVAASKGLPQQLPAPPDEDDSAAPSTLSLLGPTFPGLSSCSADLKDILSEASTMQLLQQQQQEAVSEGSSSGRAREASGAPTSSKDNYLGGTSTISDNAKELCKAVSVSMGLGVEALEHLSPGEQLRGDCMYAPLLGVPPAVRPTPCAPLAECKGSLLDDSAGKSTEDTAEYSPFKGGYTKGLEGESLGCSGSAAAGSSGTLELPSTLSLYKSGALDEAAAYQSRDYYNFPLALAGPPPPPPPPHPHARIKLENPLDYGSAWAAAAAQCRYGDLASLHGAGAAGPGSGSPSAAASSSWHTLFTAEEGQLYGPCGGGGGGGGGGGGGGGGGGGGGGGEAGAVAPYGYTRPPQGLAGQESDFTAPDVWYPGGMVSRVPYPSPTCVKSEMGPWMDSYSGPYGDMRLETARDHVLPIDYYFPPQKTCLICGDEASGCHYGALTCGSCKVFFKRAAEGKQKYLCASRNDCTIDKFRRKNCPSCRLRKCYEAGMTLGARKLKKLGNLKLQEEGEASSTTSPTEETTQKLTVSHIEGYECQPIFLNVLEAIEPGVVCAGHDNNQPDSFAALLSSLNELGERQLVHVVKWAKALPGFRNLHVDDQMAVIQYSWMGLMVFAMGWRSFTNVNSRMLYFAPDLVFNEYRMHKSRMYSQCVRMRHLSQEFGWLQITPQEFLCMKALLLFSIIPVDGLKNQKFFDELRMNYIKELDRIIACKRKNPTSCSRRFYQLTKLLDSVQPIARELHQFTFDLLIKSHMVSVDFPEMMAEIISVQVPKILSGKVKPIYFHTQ
Target sequence in this assay (P40337 whole entry, looked up): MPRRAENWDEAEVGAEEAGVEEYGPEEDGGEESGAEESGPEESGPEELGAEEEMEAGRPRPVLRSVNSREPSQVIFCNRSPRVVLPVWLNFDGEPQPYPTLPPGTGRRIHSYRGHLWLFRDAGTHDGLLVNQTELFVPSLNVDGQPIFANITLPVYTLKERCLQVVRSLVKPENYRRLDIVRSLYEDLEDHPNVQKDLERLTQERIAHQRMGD

[2] = biological target: T1, von Hippel-Lindau disease tumor suppressor/Androgen receptor; test: Protac activity against VHL/AR in human LNCAP cells assessed as induction of AR degradation incubated for 24 hrs by ELISA; type: cell-based
Target sequence in this assay (P10275 whole entry): as the sequence (P10275 whole entry, looked up) above
Target sequence in this assay (P40337 whole entry): as the sequence (P40337 whole entry, looked up) above

[3] = Cmax in CD1 mouse at 10 mg/kg, sc by LC/MS/MS analysis; type: ADME, organism-based; parameters: dose 10 mg/kg, route subcutaneous; conditions: in vivo
[4] = AUC (0 to 24 hrs) in CD1 mouse at 10 mg/kg, sc by LC/MS/MS analysis; type: ADME, organism-based; parameters: dose 10 mg/kg, time < 24 hr, route subcutaneous; conditions: in vivo
[5] = biological target: T1, von Hippel-Lindau disease tumor suppressor/Androgen receptor; test: Protac activity against VHL/AR in human VCAP cells assessed as induction of AR degradation incubated for 24 hrs by ELISA relative to untreated control; type: cell-based
Target sequence in this assay (P10275 whole entry, looked up): as the sequence (P10275 whole entry, looked up) above
Target sequence in this assay (P40337 whole entry, looked up): as the sequence (P40337 whole entry, looked up) above

[6] = biological target: T1, von Hippel-Lindau disease tumor suppressor/Androgen receptor; test: Protac activity against VHL/AR in human VCAP cells assessed as induction of AR degradation incubated for 24 hrs by ELISA; type: cell-based
Target sequence in this assay (P10275 whole entry): as the sequence (P10275 whole entry, looked up) above
Target sequence in this assay (P40337 whole entry): as the sequence (P40337 whole entry, looked up) above

| Compound | Emax [1] [%] | DC50 [2] [nM] | Cmax [3] [ng/mL] | AUC(0-t) at 24 h [4] [ng·h/mL] | DC50 [6] [nM] | Emax [5] [%] |
| --- | --- | --- | --- | --- | --- | --- |
| Cc1ncsc1-c1ccc(CNC(=O)[C@@H]2C[C@@H](O)CN2C(=O)[C@@H](NC(=O)COCCCOCCN2CCC(c3ccc(N4C(=S)N(c5ccc(C#N)c(C(F)(F)F)c5)C(=O)C4(C)C)cc3)CC2)C(C)(C)C)cc1 | 51 to 70 | ≤ 501 |  | 15600 to 40200 |  | 26 to 50 |
| CC(C)(C)[C@H](NC(=O)COCCCCCOc1ccc(C(=O)N[C@H]2C(C)(C)[C@H](Oc3ccc(C#N)c(Cl)c3)C2(C)C)cc1)C(=O)N1C[C@H](O)C[C@H]1C(=O)NCc1ccc(-c2cncs2)cc1 | > 71 | ≤ 50 |  | 15600 to 40200 |  |  |
| Cc1ncoc1-c1ccc(CNC(=O)[C@@H]2C[C@@H](O)CN2C(=O)[C@@H](NC(=O)COCc2ccc(OC(=O)N[C@H]3C(C)(C)[C@H](Oc4ccc(C#N)c(Cl)c4)C3(C)C)cc2)C(C)(C)C)cc1 | > 71 | ≤ 50 |  | 15600 to 40200 |  |  |
| Cc1ncsc1-c1ccc(CNC(=O)[C@@H]2C[C@@H](O)CN2C(=O)[C@@H](NC(=O)COCCCOCCCCCOc2ccc(N3C(=O)N(c4ccc(C#N)c(C(F)(F)F)c4)C(=O)C3(C)C)cc2)C(C)(C)C)cc1 | > 71 | ≤ 50 | 1150 | 15600 to 40200 | ≤ 50 | 51 to 70 |

More lines, main results first:

| Emax [1] [%] | DC50 [2] [nM] | Cmax [3] [ng/mL] | AUC(0-t) at 24 h [4] [ng·h/mL] | DC50 [6] [nM] | Compound | Emax [5] [%] |
| --- | --- | --- | --- | --- | --- | --- |
| > 71 | ≤ 50 | 1530 | 15600 to 40200 |  | Cc1ncsc1-c1ccc(CNC(=O)[C@@H]2C[C@@H](O)CN2C(=O)[C@@H](NC(=O)COCCc2ccc(-c3ccc(C(=O)N[C@H]4C(C)(C)[C@H](Oc5ccc(C#N)c(Cl)c5)C4(C)C)cc3)cc2)C(C)(C)C)cc1 |  |
| > 71 | ≤ 50 | 1900 | 15600 to 40200 |  | Cc1ncsc1-c1ccc([C@H](C)NC(=O)[C@@H]2C[C@@H](O)CN2C(=O)[C@@H](NC(=O)COCCCCCOc2ccc(C(=O)N[C@H]3C(C)(C)[C@H](Oc4ccc(C#N)c(Cl)c4)C3(C)C)cc2)C(C)(C)C)cc1 |  |
